Usually AUC(0-t) stands for exposure summed from dosing to a finite time, without extrapolation to infinity.

This data set in a line: Cassette dosing oral pharmacokinetics in ICR mice. It counts as in vivo. As to conditions: ICR (IcrTac:ICR), mouse; cassette oral dose 25 mg/kg, female ICR mice, plasma, 0-8 h, none in table. On the procedure:
A cassette dosing procedure was utilized to determine pharmaceutical properties of compounds disclosed herein. In this procedure, compounds are selected for each cassette (i.e., cocktail) on the basis that mass spectrometric signals for each compound will not interfere with one another upon mass spectrometric analysis (e.g., will not overlap). The concentration of each compound in the dosing cassette often is about 20 mg/mL to achieve an oral dose level of 25 mg/kg in ICR mice. Aspects of the cassette dosing procedure are described hereafter.
Prepare 0.5 mL of 20 mg/mL dosing solution (in PBS or formulation vehicle) of 12 test compounds. Dilute a dosing solution 20 fold by transferring 10 μL of the stock solution into 190 μL acetonitrile containing 0.1% formic acid to achieve a final concentration of 1 mg/mL. Dilute further a 1 mg/mL solution 1,000 fold by transferring 1 μL of the stock solution into 999 μL acetonitrile containing 0.1% formic acid to achieve a final concentration of 1 μg/mL. Use the 1 μg/mL solution for mass spectrometric method development based on direct infusion. Determine parent/daughter mass spectra of each compound using multiple reaction monitoring (MRM). Compare parent/daughter mass spectra of each compound to assure no cross-reaction interference during LC-MS/MS measurements. Based on MRM mass spectra determine the composition of all cassettes.
Mix 250 μL of four prepared dosing solutions and an oral PK internal standard (20 mg/mL each) according to cassette design to achieve a final concentration of 4 mg/mL. Vortex cassettes rigorously and ultra-sonicate to obtain a clear solution or homogeneous suspension. Use the cassette solutions to dose animals by oral route of administration at 25 mg/kg.
All in vivo experiments follow protocols approved by the Animal Use and Care Committee. Female ICR mice (IcrTac:ICR), 8-10 weeks of age are obtained from Taconic (Hudson, N.Y.). Mice are housed on a 12 h/12 h light/dark cycle with ad libitum access to water and food. After a minimum two week acclimation period, the mice are randomized into groups with a minimum group size of four. The animals used for pharmacokinetic studies have a body-weight range of 25-35 g. A 25 mg/kg (4 mg/ml) dose of a cassette described in Example 1 is orally administered to mice that have been fasted overnight.
After compound administration, serial blood samples are collected via retro-orbital puncture with a capillary tube at various time points (15, 30 minutes and 1, 2, 4, 6 and 8 hours). The samples are transferred to a heparinized 0.5 mL microcentrifuge tube and placed on ice. Plasma is separated by centrifugation and samples are stored at −80° C. until assay.
Dilute a cassette dosing solution (4 mg/mL) four fold by transferring 25 μL of the stock solution into 75 μL of 50% acetonitrile containing 0.1% formic acid to achieve the concentration of 1 mg/mL. Dilute this stock solution further by serial dilutions to make 0.01, 0.1, 1 and 5 μg/mL working standard solutions.
Prepare 500 mL of 0.5 μg/mL solution of bioanalytical internal standard using 100% acetonitrile with 0.1% formic acid. Store the quenching solution in a tightly sealed bottle at 4° C.
Transfer 15 μL of blank mouse plasma to a 96 well plate and precipitate plasma proteins by pipetting of 120 μL of quenching solution to all plasma aliquots. Cover the plate with a matching plate mat and mix well for 30-60 seconds using a vertical multi-tube shaker.
Add 15 μL of the working standard solution of corresponding cassette to quenched plasma and vortex the plate for an additional 30-60 seconds. Then, centrifuge the plate at 4,000 rpm for 10 minutes at 4° C. Without disturbing the plasma protein pellet, transfer 120 μL of the supernatant to a new 96 well plate and dry the sample under nitrogen using a TurboVap® plate evaporator (Caliper Life Sciences; Hopkinton, Mass.). Reconstitute dried residues with 120 μL 20% acetonitrile containing 0.1% formic acid. […]
`Cn1c2ccccc2n2c3nc(N4CCOCC4)c(F)cc3c(=O)c(C(=O)NCCN3CCCC3)c12`: the AUC(0-t) was determined as 2000 ng·h/mL.

`CN1CCCC1CCNC(=O)c1c(=O)c2cc(F)c(N3CCOCC3)nc2n2c3ccccc3n(C)c12` (stereo not shown) yielded an AUC(0-t) of 1190 ng·h/mL.

`O=C(NCCN1CCCC1)c1c(=O)c2ccc(N3CCOCC3)nc2n2c1sc1ccccc12`: the AUC(0-t) came to 2150 ng·h/mL.

In turn, `CN1CCCC1CCNC(=O)c1c(=O)c2ccc(N3CCOCC3)nc2n2c1sc1ccccc12` (stereo not shown) yielded an AUC(0-t) of 2590 ng·h/mL.

On to `Cn1c2ccccc2n2c3nc(N4CCOCC4)ccc3c(=O)c(C(=O)NCCN3CCCC3)c12`, for which the AUC(0-t) was found to be 1260 ng·h/mL.

For `CN1CCCC1CCNC(=O)c1cn2c3c(c(N4CCOCC4)c(F)cc3c1=O)Oc1ccccc1-2` (stereo not shown), the AUC(0-t) was found to be 1430 ng·h/mL. The AUC(0-t) values of the last two molecules are within 1.5-fold of each other.

`CN1CCCC1CCNC(=O)c1c(=O)c2cc(F)c(N3CCOCC3)nc2n2c1sc1ccccc12` (stereo not shown) came in with an AUC(0-t) of 3810 ng·h/mL.

On to `O=C(NCCN1CCCC1)c1c(=O)c2cc(F)c(N3CCOCC3)nc2n2c1sc1ccccc12`, for which the AUC(0-t) amounted to 2260 ng·h/mL.

For `CN1CCN(C(=O)c2c(=O)c3cc(F)c(N4CCOCC4)nc3n3c2sc2ccccc23)CC1`, the exposure AUC(0-t) was 6160 ng·h/mL.

In turn, `O=C(NCCN1CCC(O)C1)c1c(=O)c2cc(F)c(N3CCOCC3)nc2n2c1sc1ccccc12` (stereo not shown) yielded an AUC(0-t) of 1090 ng·h/mL.

As to `CN1CCC(N(C)C(=O)c2c(=O)c3cc(F)c(N4CCOCC4)nc3n3c2sc2ccccc23)C1` (stereo not shown), the AUC(0-t) came to 2130 ng·h/mL.

In turn, `O=C(NCCNCC1CCCO1)c1c(=O)c2ccc(N3CCOCC3)nc2n2c1sc1ccccc12` (stereo not shown) displayed an AUC(0-t) of 1900 ng·h/mL.

As for `O=C(NCCN1CC=CC1)c1c(=O)c2ccc(N3CCOCC3)nc2n2c1sc1ccccc12`, the AUC(0-t) worked out at 7940 ng·h/mL.

Molecule `Cn1cncc1CNC(=O)c1c(=O)c2ccc(N3CCOCC3)nc2n2c1sc1ccccc12` came in with an AUC(0-t) of 2920 ng·h/mL.

Molecule `O=C(c1c(=O)c2ccc(N3CCOCC3)nc2n2c1sc1ccccc12)N1CCN(c2ncccn2)CC1` displayed an AUC(0-t) of 15300 ng·h/mL. Compared with the last molecule, the AUC(0-t) is about 5.2-fold higher.

In turn, `O=C(c1c(=O)c2ccc(N3CCOCC3)nc2n2c1sc1ccccc12)N1CCN(c2ccccn2)CC1` yielded an area under the curve AUC(0-t) of 1740 ng·h/mL.

In the case of `O=C(NCCN1CC=CC1)c1cn2c3c(c(N4CCC(c5cnccn5)C4)c(F)cc3c1=O)Oc1cc3ccccc3cc1-2` (stereo not shown), the AUC(0-t) came out at 8040 ng·h/mL.

On to `O=C(NCCN1CC=CCC1)c1c(=O)c2ccc(N3CCOCC3)nc2n2c1sc1ccccc12`, for which the AUC(0-t) came to 632 ng·h/mL. Against the preceding molecule, the AUC(0-t) is about 13-fold lower.

As to `O=C(NCCN1CC=CC1)c1c(=O)c2cc(F)c(N3CCOCC3)nc2n2c1sc1ccccc12`, the exposure AUC(0-t) turned out to be 2000 ng·h/mL.

On to `O=C(NCCNCCF)c1c(=O)c2ccc(N3CCOCC3)nc2n2c1sc1ccccc12`, for which the area under the curve AUC(0-t) was determined as 5020 ng·h/mL.

`O=C(NCCNCC(F)(F)F)c1c(=O)c2ccc(N3CCOCC3)nc2n2c1sc1ccccc12` displayed an AUC(0-t) of 9450 ng·h/mL.

With `O=C(NCCNCCF)c1c(=O)c2cc(F)c(N3CCOCC3)nc2n2c1sc1ccccc12`, the exposure AUC(0-t) came out at 2220 ng·h/mL.

`O=C(NCCn1ccnc1)c1c(=O)c2ccc(N3CCOCC3)nc2n2c1sc1ccccc12` yielded an AUC(0-t) of 4030 ng·h/mL.

For the molecule `Cn1ccnc1CNC(=O)c1c(=O)c2ccc(N3CCOCC3)nc2n2c1sc1ccccc12`, the exposure AUC(0-t) stood at 5490 ng·h/mL.

In turn, `O=C(NCCN1CCOCC1)c1c(=O)c2ccc(N3CCOCC3)nc2n2c1sc1ccccc12` came in with an AUC(0-t) of 2980 ng·h/mL.

The molecule `Cn1ccnc1CNC(=O)c1c(=O)c2cc(F)c(N3CCOCC3)nc2n2c1sc1ccccc12` came in with an AUC(0-t) of 20300 ng·h/mL.

Turning to `Cc1nccn1CCNC(=O)c1c(=O)c2ccc(N3CCOCC3)nc2n2c1sc1ccccc12`, the area under the curve AUC(0-t) came out at 4380 ng·h/mL.

Take `O=C(NNC1=NCCN1)c1c(=O)c2cc(F)c(N3CCOCC3)nc2n2c1sc1ccccc12`: the AUC(0-t) amounted to 2430 ng·h/mL. This AUC(0-t) is about 1.8-fold lower than that of the molecule before.

`Cn1c2ccccc2n2c3nc(N4CCOCC4)c(F)cc3c(=O)c(C(=O)N3CCN4CCCC4C3)c12` (stereo not shown) showed an exposure AUC(0-t) of 3210 ng·h/mL.

Molecule `CN1CCN(c2ccc3c(=O)c(C(=O)NCc4ccccn4)c4sc5ccccc5n4c3n2)CC1` gave an AUC(0-t) of 51100 ng·h/mL.

Consider `O=C(NCCNC1CC1)c1c(=O)c2cc(F)c(N3CCOCC3)nc2n2c1sc1ccccc12`, for which the exposure AUC(0-t) is 5150 ng·h/mL.

The molecule `CN1CCCCC1CNC(=O)c1c(=O)c2ccc(N3CCOCC3)nc2n2c1sc1ccccc12` (stereo not shown) came in with an area under the curve AUC(0-t) of 1050 ng·h/mL.

For `CN1CCCN(C(=O)c2c(=O)c3cc(F)c(N4CCOCC4)nc3n3c2sc2ccccc23)CC1`, the exposure AUC(0-t) worked out at 4230 ng·h/mL.

`Cn1ccnc1CNC(=O)c1c(=O)c2cc(N3CCOCC3)nnc2n2c1sc1ccccc12` showed an exposure AUC(0-t) of 3780 ng·h/mL.

As to `CN1CCCC(NC(=O)c2c(=O)c3cc(F)c(N4CCOCC4)nc3n3c2sc2ccccc23)C1` (stereo not shown), the AUC(0-t) was 1030 ng·h/mL. Compared with the last molecule, the AUC(0-t) is about 3.7-fold lower.

Take `O=C(NCC1CCCN1)c1c(=O)c2cc(F)c(N3CCOCC3)nc2n2c1sc1ccccc12` (stereo not shown): the area under the curve AUC(0-t) turned out to be 1050 ng·h/mL.

`CN1CCCCC1CNc1ccc2c(=O)c(C(=O)NCc3ccncc3)c3sc4ccccc4n3c2n1` (stereo not shown): the AUC(0-t) was 790 ng·h/mL.

On to `CN1CCCC1CNC(=O)c1c(=O)c2cc(F)c(N3CCOCC3)nc2n2c1sc1ccccc12` (stereo not shown), for which the AUC(0-t) stood at 3960 ng·h/mL.

`CN1CCN(c2nc3c(cc2F)c(=O)c(C(=O)NCc2cn(C)cn2)c2sc4ccccc4n23)CC1`: the exposure AUC(0-t) stood at 45100 ng·h/mL.

`O=C(NCCNC1CCC1)c1c(=O)c2ccc(N3CCOCC3)nc2n2c1sc1ccccc12`: the AUC(0-t) came to 3180 ng·h/mL. This AUC(0-t) lies about 14-fold lower than the previous one.

For `CN1CCN(c2ccc3c(=O)c(C(=O)NC4CC4)c4n(C)c5ccccc5n4c3n2)CC1`, the AUC(0-t) was found to be 5200 ng·h/mL.

For the molecule `O=C(NCCNC1CC1)c1c(=O)c2ccc(N3CCOCC3)nc2n2c1sc1ccccc12` [drawing 604], the AUC(0-t) was 5370 ng·h/mL. The AUC(0-t) values of the last two molecules are within 1.5-fold of each other.

`Cc1cnc(CNC(=O)c2c(=O)c3ccc(N4CCN(C)CC4)nc3n3c2sc2ccccc23)cn1` [drawing 619]: the AUC(0-t) is 166000 ng·h/mL.

The values are drawn from patent US8853234B2, “Quinolone analogs and methods related thereto” (Senhwa Biosciences, Inc., priority 2007, dated 2014).
